Laboratory results from ChEMBL document CHEMBL1156766, “Chloro-substituted 3-alkylamino-4H-1,2,4-benzothiadiazine 1,1-dioxides as ATP-sensitive potassium channel activators: impact of the position of the chlorine atom on the aromatic ring on activity and tissue selectivity” (J Med Chem, 2010).
The source made the active and inactive calls. No cut-off for these calls is given here.

How the values were obtained:
[1] = Inhibition of glucose-induced insulin secretion in rat pancreatic islets assessed as residual insulin release at 50 uM; assay type: functional, Pancreatic islet
Aorta = assay: Myorelaxant activity in rat aortic ring assessed as inhibition of KCL-induced contraction; assay type: functional, tissue-based
[2] = Dissociation constant, pKa of the compound; assay type: physicochemical
[3] = Inhibition of glucose-induced insulin secretion in rat pancreatic islets assessed as residual insulin release at 10 uM; assay type: functional, Pancreatic islet
[4] = Inhibition of glucose-induced insulin secretion in rat pancreatic islets assessed as residual insulin release at 1 uM; assay type: functional, Pancreatic islet
[5] = molecular target: Sulfonylurea receptor 1, Kir6.2 (Homo sapiens, UniProt Q09428+Q14654); assay: Activation of human recombinant SUR1/Kir6.2 channel expressed in HEK293 cells assessed as increase in ionic current by whole cell patch clamp assay; assay type: cell-based
[6] = Inhibition of glucose-induced insulin secretion in rat pancreatic islets assessed as residual insulin release at 0.1 uM; assay type: functional, Pancreatic islet
[7] = Inhibition of glucose-induced insulin secretion in rat pancreatic islets assessed as residual insulin release; assay type: functional, cell-based; conditions: Pancreatic islet
[8] = Ratio of EC50 for rat aortic ring to IC50 for rat pancreatic islets; assay type: functional, Aorta
[9] = Increase in 86Rb outflow in perfused rat pancreatic islets at 10 uM in presence of extracellular calcium and glucose; assay type: functional, Pancreatic islet
[10] = molecular target: Sulfonylurea receptor 1, Kir6.2 (Homo sapiens) (UniProt Q14654+Q09428); assay: Activation of human recombinant SUR1/Kir6.2 channel expressed in HEK293 cells assessed as increase in ionic current by whole cell patch clamp assay in presence of KATP channel blocker Tolbutamide; assay type: cell-based

Chain of Sulfonylurea receptor 1, Kir6.2 (Q14654 whole entry): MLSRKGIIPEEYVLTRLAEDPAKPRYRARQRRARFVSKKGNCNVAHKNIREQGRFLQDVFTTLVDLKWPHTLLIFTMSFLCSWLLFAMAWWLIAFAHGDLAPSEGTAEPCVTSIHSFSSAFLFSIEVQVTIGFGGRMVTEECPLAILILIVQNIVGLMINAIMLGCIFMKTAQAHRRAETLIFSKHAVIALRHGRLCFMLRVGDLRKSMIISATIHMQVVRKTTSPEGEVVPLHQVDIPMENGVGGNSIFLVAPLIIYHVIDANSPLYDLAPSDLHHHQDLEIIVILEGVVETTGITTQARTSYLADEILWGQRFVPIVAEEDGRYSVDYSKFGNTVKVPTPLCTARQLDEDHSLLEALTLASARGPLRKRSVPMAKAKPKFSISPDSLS
Chain of Sulfonylurea receptor 1, Kir6.2 (Q09428 whole entry): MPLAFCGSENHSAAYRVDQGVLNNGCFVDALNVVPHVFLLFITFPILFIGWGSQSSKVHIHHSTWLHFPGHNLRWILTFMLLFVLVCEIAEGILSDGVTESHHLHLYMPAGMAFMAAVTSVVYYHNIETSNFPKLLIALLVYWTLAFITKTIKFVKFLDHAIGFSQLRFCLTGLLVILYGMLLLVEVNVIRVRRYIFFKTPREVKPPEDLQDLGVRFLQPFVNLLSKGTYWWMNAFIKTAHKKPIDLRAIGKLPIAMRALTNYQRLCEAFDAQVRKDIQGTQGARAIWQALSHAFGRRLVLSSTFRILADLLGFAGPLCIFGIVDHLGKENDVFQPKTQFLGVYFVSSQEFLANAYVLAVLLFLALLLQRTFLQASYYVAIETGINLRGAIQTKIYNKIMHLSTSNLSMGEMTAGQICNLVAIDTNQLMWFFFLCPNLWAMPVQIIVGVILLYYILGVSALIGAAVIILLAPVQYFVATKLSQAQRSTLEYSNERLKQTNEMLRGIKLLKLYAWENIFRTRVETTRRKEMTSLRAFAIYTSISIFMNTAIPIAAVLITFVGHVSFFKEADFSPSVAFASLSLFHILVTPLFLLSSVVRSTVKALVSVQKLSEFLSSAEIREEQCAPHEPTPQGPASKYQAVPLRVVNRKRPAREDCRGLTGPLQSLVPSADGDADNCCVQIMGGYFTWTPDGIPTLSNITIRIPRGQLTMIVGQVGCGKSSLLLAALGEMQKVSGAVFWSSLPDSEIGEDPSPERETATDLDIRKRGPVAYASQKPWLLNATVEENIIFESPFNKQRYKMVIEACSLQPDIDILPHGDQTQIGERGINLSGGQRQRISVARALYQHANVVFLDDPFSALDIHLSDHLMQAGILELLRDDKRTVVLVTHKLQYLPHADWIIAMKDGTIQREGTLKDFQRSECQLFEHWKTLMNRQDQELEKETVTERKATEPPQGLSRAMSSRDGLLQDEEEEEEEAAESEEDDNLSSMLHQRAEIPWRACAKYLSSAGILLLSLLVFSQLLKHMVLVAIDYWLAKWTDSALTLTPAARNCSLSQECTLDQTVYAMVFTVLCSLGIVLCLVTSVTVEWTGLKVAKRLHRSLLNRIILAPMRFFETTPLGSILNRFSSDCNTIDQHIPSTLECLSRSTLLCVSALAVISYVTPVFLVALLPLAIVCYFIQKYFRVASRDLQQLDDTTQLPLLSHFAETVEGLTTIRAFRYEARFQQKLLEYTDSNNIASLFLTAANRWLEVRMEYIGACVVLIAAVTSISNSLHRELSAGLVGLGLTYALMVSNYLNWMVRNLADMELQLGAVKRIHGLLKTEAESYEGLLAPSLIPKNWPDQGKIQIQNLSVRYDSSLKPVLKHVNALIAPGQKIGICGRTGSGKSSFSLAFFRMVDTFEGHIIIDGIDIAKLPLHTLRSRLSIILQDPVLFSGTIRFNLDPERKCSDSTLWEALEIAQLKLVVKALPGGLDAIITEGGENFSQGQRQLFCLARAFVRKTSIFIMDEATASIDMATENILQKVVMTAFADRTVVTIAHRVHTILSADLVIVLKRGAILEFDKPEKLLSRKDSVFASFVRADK

SMILES | EC50 (Aorta) | Activity [1] | Activity [3] | Activity [4] | also measured
O=S1(=O)NC(NC2CCC2)=Nc2cc(Cl)ccc21 | – | – | – | – | EC50 [5]: 0.08 µM
CC(C)NC1=NS(=O)(=O)c2cc(Cl)ccc2N1 | – | 5.66% | 4.84% | 36.19% | Activity [6]: 90.41%
CC(C)NC1=NS(=O)(=O)c2cc(Cl)c(Cl)cc2N1 | – | 4.96% | 6.29% | 13.19% | –
O=S1(=O)N=C(NC2CCC2)Nc2cccc(Cl)c21 | > 30 µM | – | 30.23% | 77.56% | –
O=S1(=O)N=C(NC2CCC2)Nc2ccc(Cl)cc21 | – | 8.11% | 6.44% | 60.19% | IC50 [7]: 0.48 µM; Ratio EC50 [8]: 75
O=S1(=O)N=C(NC2CC2)Nc2ccc(Cl)cc21 | 190 µM | 5.82% | 26.56% | 84% | –
O=S1(=O)N=C(NC2CCC2)Nc2cc(Cl)ccc21 | > 300 µM | 9.58% | 11.27% | 66.17% | Activity [9]: 1.45 %/min; Activity [10]: inactive
CC(C)NC1=NS(=O)(=O)c2ccc(Cl)cc2N1 | 53.4 µM | 6.38% | 7.51% | 13.2% | Activity [6]: 76.72%; IC50 [7]: 0.23 µM; Ratio EC50 [8]: 230; pKa [2]: 9.35
CCCNC1=NS(=O)(=O)c2cc(Cl)ccc2N1 | – | 3.56% | 14.24% | 83.41% | –
CCCNC1=NS(=O)(=O)c2ccc(Cl)cc2N1 | 73.2 µM | 8.74% | 14.45% | 71.5% | –
O=S1(=O)N=C(NC2CC2)Nc2cc(Cl)ccc21 | 156 µM | 7.97% | 12.74% | 93.02% | –
CCNC1=NS(=O)(=O)c2cc(Cl)ccc2N1 | – | 2.09% | 10.65% | 40.79% | –

Continued, in another order:

EC50 (Aorta) | SMILES | Activity [1] | Activity [3] | Activity [4] | also measured
> 300 µM | CC(C)NC1=NS(=O)(=O)c2cccc(Cl)c2N1 | 96.88% | – | – | pKa [2]: 9.11
54.8 µM | CCNC1=NS(=O)(=O)c2ccc(Cl)cc2N1 | – | 9.55% | 21.7% | –
> 300 µM | CCNC1=NS(=O)(=O)c2c(Cl)cccc2N1 | – | 37.55% | 95.72% | –
90.4 µM | CCNC1=NS(=O)(=O)c2cccc(Cl)c2N1 | 80.4% | – | – | –
180 µM | CCCNC1=NS(=O)(=O)c2cccc(Cl)c2N1 | 94.69% | – | – | –
126 µM | O=S1(=O)N=C(NC2CCC2)Nc2c(Cl)cccc21 | 102.55% | – | – | –
